What was measured:
HUVEC = assay: Calcium imaging, intracellular [Ca2+]i increase in HUVEC; type: cell-based, human; details: for changes in cellular [Ca2+]i: 2 μmol/L
Method: HUVECs were plated onto 24-well plates and grown to 70% confluence. To monitor cytosolic Ca^2+ signals, cells were loaded with fluo-3 AM (4 μmol/L; Molecular Probes) and incubated for 40 min at 37° C. in complete medium that contained […] pluronic acid. After washing twice with HEPES buffer that contained (in mmol/L) 1.25 CaCl2, 5.5 D-glucose, 10 HEPES, 5 KCl, 0.5 MgCl2, and 140 NaCl (brought to pH 7.4 with NaOH); the plates were incubated at 37° C. for 15 additional minutes prior to fluorescence imaging. Fluorescence images were acquired every 1 s over the course of 5 min in cells treated with 4α-phorbol-12, 13-didecanoate (4α-PDD; a specific TRPV4 agonist; 10 μmol/L), 5,6-diHETE ((±)5,6-dihydroxy-8Z,11Z,14Z,17Z-eicosatetraenoic acid) 1, 5 lactone (0.01-5 μmol/L) and 5,6-diHETE (hydrolytic isomer of 5,6-EEQ; 2 and 5 μmol/L). The calculated ratio between maximal intensity (F1) and basal intensity (F0) was determine for each experiment and presented as Average±SD.
To investigate the effect of 5,6-diHETE ((±)5,6-dihydroxy-8Z,11Z,14Z,17Z-eicosatetraenoic acid) lactone on cytosolic [Ca^2+]i (FIG. 1), HUVECs were exposed to graded doses of 5,6-diHETE lactone (0.01-5 μmol/L) in ethanol/HEPES buffer, and the intracellular changes in [Ca^2+] were determined by the mean of fluoresces intensity. […] No significant differences in cytosolic [Ca^2+]i levels were detected beyond 0.5 μM lactone. Above this concentration the cytosolic [Ca^2+]i levels reach saturation.
These rapid pathways result in the reduction of epoxide concentrations, and thus, in a decrease in their activity. We therefore tested the ability of the hydrolyzed form compared to the unhydrolyzed form to increase intracellular calcium (FIG. 2).

[1] = test system: mouse mesenteric resistance arteries; assay: Vascular reactivity in mouse mesenteric resistance arteries (wire myograph); details: 10^−5 mol/L, pre-constricted with U-46619 0.1 μmol/L, n=11
Method: On the day preceding the experiment, adult male mice (age 3-6 months) were decapitated and mesenteric tissue was dissected and placed on an agar plate with ice-cold HEPES-physiological saline solution (PSS) containing: 123 mM NaCl, 4.7 mM KCl, 2.5 mM CaCl2*2H2O, 1.2 mM MgSO4*7H2O, 20 mM NaHCO3, 1.2 mM KH2PO4, 26 μM EDTA, 11 mM glucose and 2.38 mg/ml HEPES Fat and connective tissue were carefully removed, arterioles (150-200 μm diameter) were cut into 3 mm segments and stored overnight at 4° C. The vessels were then mounted carefully on two tungsten wires (0.025 mm diameter) with care not to damage the endothelium, and mounted on a four-chamber wire myograph (DMT, Denmark, Model 620 M). Arteries were then equilibrated at 37° C. for 30 min in the myograph chamber filled with PSS and constantly bubbled with gas containing 21% O2, 74% N2, and 5% CO2 and set at 1 mN resting tension obtained in the LabChart Pro software (AD instruments, Oxfordshire, UK). […] After contraction reached steady state, cumulative concentrations of 5,6-diHETE lactone were added (1 μM to 10 μM) in DMSO (up to 0.16%) and the % relaxation responses were determined relative to the relaxation response to 100 μM papaverine.
To evaluate the vasodilation mediated by 5,6-diHETE lactone, mesenteric arteries from C57BL were extracted and monitored for their dilation in a wire myograph chamber under physiological conditions. […]

[2] = test system: Human adipose arterioles (HAAs); assay: Dilation of human adipose arterioles (HAAs), cannulated, video diameter measurement; details: for max dilation: 10^−7 mol/L, pre-constricted with endothelin-1
Method: Human adipose arterioles (HAAs) were extracted from adipose tissues obtained from subjects without coronary artery disease (7 normotensives and 7 hypertensives). The HAAs (100-200 μm in diameter) were cannulated with 2 glass micropipettes in an organ chamber, and the internal diameter of arterioles was measured with a video system. Arterioles were pre-constricted with endothelin-1 (10-50 nmol/L) to reduce the passive diameter by 30-50%. Relaxation was measured in response to the increasing concentrations of 5,6-diHETE lactone (10^−4-10^−1 μmol/L). To examine the involvement of NO in the 5,6-diHETE lactone-induced dilation, relaxation responses were determined in the presence or absence of nitric oxide synthase (NOS) antagonist (100 μmol/L N[omega]-nitro-Larginine methyl ester [L-NAME]).
Endothelial cell denudation was achieved by perfusion of the vessels with pre-warmed air as previously described (H. Miura, Circ. Res. 92 (2003)). At the end of each experiment, papaverine (100 μmol/L), an endothelium-independent vasodilator, was added to determine the maximal dilation for normalization of dilator responses. Vasodilator responses are expressed as the percentage of maximal dilation, with 100% representing complete relaxation (maximal diameter).

[3] = target: T1, KCa3.1 (IK) calcium-activated potassium channel (human KCNN4 gene) expressed in CHO cells (Homo sapiens, UniProt O15554); assay: Thallium flux assay, agonist effect on IK channel; type: cell-based; details: for Normalized % Activation: IK
T1 construct: expressed in transfected cells
Method: (§1) Potassium channels genes were expressed in HEK293 or CHO cells (see Table 1). SspI or PvuI enzymes were used to linearize pcDNA3.1 plasmid (Thermo Fisher). The plasmid was stably transfected by Lonza Nucleofector. The transfection efficiency was >80% as validated by expression (western blot) and activation (patch clamp and membrane potential detection) of the channels.
(§2) Functional activity of voltage-gated potassium channels was conducted using a potassium dye (Thallium flux assay, Molecular Devices) using a Fluorescence Imaging Plate Reader (FLIPRTETRA™) instrument, according to the manufacturer's instructions. Cells were plated in 384-well black wall, flat clear bottom microtiter plates (BD Biocoat Poly-D Lysine Multiwell Cell Culture Plate) at 15,000 to 30,000 cells per well. Cells were incubated at 37° C. overnight or until cells reach sufficient density in the wells (near confluent monolayer) to use in fluorescence assays. A typical sequence is to record a baseline during the pre-incubation period (first addition of test article before stimulation), followed by activation in the stimulus buffer. For each addition, the first 60 seconds of data are acquired at the maximum rate (1 sample/second) and for the remaining 9-19 minutes (depending on the recording time of each addition); data are sampled every 5 seconds.
(§3) Accordingly, the objective of this study was to evaluate the agonist effects in vitro of the 5,6-diHETE lactone on two cloned human channels stably expressed in HEK-293 or CHO cells. The assay was performed with a thallium flux assay (FLIPR® Potassium Assay, Molecular Devices) according to the manufacturer's instructions. Briefly, cells were plated in 384-well black wall, flat clear bottom microtiter plates (BD Biocoat Poly-D-Lysine Multiwell Cell Culture Plate) at 15,000 to 30,000 cells per well. Cells were incubated at 37° C. overnight or until cells reach sufficient density in the wells (near confluent monolayer) to use in fluorescence assays. Dye-loading: Growth medium was removed and replaced with dye-loading buffer for 60 minutes at room temperature (protected from light). Agonist Effect: 5 repetitions of (5 μL) test, and vehicle or control solutions (assay buffer=0.3% DMSO) in K^+-free buffer with 5 mM Tl^+ was added to each well for ˜5 minutes. The test was 5,6-diHETE lactone (at eight concentrations: 0.05, 0.15, 0.3, 0.65, 1.25, 2.5, 5, and 10 μM, n=4). The agonist effects of the test article on the potassium channels was evaluated during this period by using a Fluorescence Imaging Plate Reader (FLIPRTETRA™) instrument.
(§4) To calculate the effect, the signal elicited in the presence of a known agonist, (1 μM A-23187 for SK3 and 10 μM NS309 for IK) with 5 mM thallium was set to 100% activation and the signal in the presence of the vehicle control (assay buffer+0.3% DMSO) was set to 0% activation. EC50 was calculated using GraphPad prism 5 software using nonlinear regression fit formula assuming a simple binding model.

[4] = target: T2, KCa2.3 (SK3) calcium-activated potassium channel (human KCNN3 gene) expressed in HEK293 cells (Homo sapiens, UniProt Q9UGI6); assay: Thallium flux assay, agonist effect on SK3 channel; type: cell-based
T2 construct: expressed in transfected cells
Method: as §1, §2, §3, §4

rat mesenteric arteries = assay: Relaxation of rat mesenteric arteries from NT and 5/6Nx rats (wire myograph)
[5] = test system: Sprague-Dawley 5/6Nx rats; assay: Direct blood pressure measurement in 5/6Nx rats after acute injection; type: in vivo, rat
Method: Direct blood pressure measurements—For direct blood pressure (BP) evaluation, Sprague-Dawley 5/6Nx rats were deeply anesthetized by an injection of 87 mg/kg ketamine and 13 mg/kg xylazine (intramuscular) mixture. Next, the rats were instrumented with a venous line and an arterial line. Specifically, using 26G i.v. cannula (BD Neoflon, Helsinborg, Sweden) we punctured one of the tail veins, and installed the cannula. Next, 1 ml of saline heparin (500 IU/ml) mixture was administered to avoid blood clotting. Concomitantly, we installed the arterial line, after a neck incision we bluntly exposed the right carotid and ligated it distally. Then the artery was clamped proximally and incised between the ligation and the clamp. A 100 PE tube was advanced into the artery and tightened in it by second ligature aimed to avoid blood leakage, and then we removed the arterial clamp. The external tube was attached to a Luer stopcock valve, through which saline could be injected, blood withdrawn and to be connected to a pressure transducer.
Upon connecting and stabilization, signals were continuously sampled at a sampling rate of 200 samples/sec by the MPVS-300 system, recorded.
Basal BP was recorded for 10 min, after which time 0.5 ml 5,6-diHETE lactone (0.3 mg/kg and 3 mg/kg) dissolved in saline+DMSO (9:1) were injected through the venous line, and BP was recorded for additional 10 min after injection. For control, two distinct, known BP lowering agents were used consecutively, labetalol (10 mg/kg) a known a and p adrenergic inhibitor, and amlodipine (1.5 mg/kg) a calcium channel blocker (each by 0.5 ml venous injection). BP was recorded for additional 10 min after each injection. Specifically, after lactone effect recording labetalol was administered and 10 min later the amlodipine. We terminated the experiment by venous administration of 1M KCl overdose, until the heart stopped.

CCC=CCC=CCC=CCC=CCC(O)C1CCCC(=O)O1 (racemic) [5,6-diHETE lactone, 5,6 dihydroxyeicosatetraenoic acid (5,6-diHETE) lactone]
concentration beyond which cytosolic [Ca2+]i levels show no significant differences (saturation) (HUVEC): 0.5 µM | lowest concentration causing a significant [Ca2+] increase (HUVEC): 0.01 µmol/L | changes in cellular [Ca2+]i (HUVEC): induced | EC50 (HUVEC; Homo sapiens, Fluo4 fluorescence, 0.01-5 μmol/L, read-out: EC50 of [Ca2+]i increase (F1max/F0)): 9.94 nM | % dilation (relative to 100 μM papaverine) [1]: 29.4±3.1% | max dilation ([2]; hypertensive subjects): 40.9% | effect of L-NAME on the dilation ([2]; hypertensive subjects, L-NAME 100 μmol/L): no effect | effect of mechanical denudation of the endothelial layer on induced dilation ([2]; normotensive (healthy) arterioles): significantly reduced | max dilation ([2]; normotensive subjects): 58.6% | reduction of the dilation effect by L-NAME ([2]; normotensive subjects, L-NAME 100 μmol/L): 50% | EC50 ([3]; CHO cells, 100% = 10 μM NS309, read-out: EC50, IK channel activation): 2650 nM | Normalized % Activation ([3]; 0.05 μM): −0.13% | Normalized % Activation ([3]; 0.15 μM): −0.03% | Normalized % Activation ([3]; 0.3 μM): 0.2% | Normalized % Activation ([3]; 0.65 μM): 1.03% | Normalized % Activation ([3]; 1.25 μM): 6.06% | Normalized % Activation ([3]; 2.5 μM): 44.2% | Normalized % Activation ([3]; 5 μM): 90% | Normalized % Activation ([3]; 10 μM): 98.19% | EC50 ([4]; HEK293 cells, 100% = 1 μM A-23187, read-out: EC50, SK3 channel activation): 9990 nM | Normalized % Activation ([4]; SK3, 0.05 μM): 0.12% | Normalized % Activation ([4]; SK3, 0.15 μM): 0.35% | Normalized % Activation ([4]; SK3, 0.3 μM): 0.95% | Normalized % Activation ([4]; SK3, 0.65 μM): 3.25% | Normalized % Activation ([4]; SK3, 1.25 μM): 10.16% | Normalized % Activation ([4]; SK3, 2.5 μM): 25.36% | Normalized % Activation ([4]; SK3, 5 μM): 43.17% | Normalized % Activation ([4]; SK3, 10 μM): 73.65% | % relaxation (relative to papaverine) (rat mesenteric arteries; 5/6Nx vessels, 10^−6M, n=11): 73.3±20.2% | % relaxation (relative to papaverine) (rat mesenteric arteries; NT vessels, 10^−6M, n=11): 58.6±25.0% | effect of pre-treatment with TRAM-34 and apamin on induced relaxation (rat mesenteric arteries; lactone 1 μmol/L, TRAM-34 1 μmol/L and apamin 1 μmol/L, p<0.01): significantly attenuated | percent reduction of SBP from baseline ([5]; 0.3 mg/kg i.v.): about 20% | systolic blood pressure (SBP) upon injection ([5]; 0.3 mg/kg i.v., baseline 188.0±5.5 mmHg, 3 rats): 162.5±12.3 mmHg

CC/C=C\C/C=C\C/C=C\C/C=C\CC(O)C(O)CCCC(=O)O (racemic) [5,6-diHETE, (±)5,6-dihydroxy-8Z,11Z,14Z,17Z-eicosatetraenoic acid]
lowest concentration causing a significant [Ca2+] increase (HUVEC): 5 µmol/L | changes in cellular [Ca2+]i (HUVEC): not

CC(=O)OCC[N+](C)(C)C [Acetylcholine, acetylcholine, reference compound]
% relaxation (relative to papaverine) (rat mesenteric arteries; 5/6Nx vessels, acetylcholine concentration response, n=7-13): 63.2±15.6% | % relaxation (relative to papaverine) (rat mesenteric arteries; NT vessels, acetylcholine concentration response, n=7-13): 94.8±5.5%

CC(CCc1ccccc1)NCC(O)c1ccc(O)c(C(N)=O)c1 (centres unmarked) [labetalol, reference compound]
percent reduction of SBP from baseline ([5]; 10 mg/kg i.v., given after the lactone): about 20%
